ChEMBL document CHEMBL1201862, “PubChem BioAssay data set” (2004)
Activity calls are given as the source filed them.

Tests used:
[1] = target: T1, Tyrosine-protein phosphatase non-receptor type 22 (Homo sapiens, UniProt Q9Y2R2); type: functional
T1 sequence (Q9Y2R2 whole entry): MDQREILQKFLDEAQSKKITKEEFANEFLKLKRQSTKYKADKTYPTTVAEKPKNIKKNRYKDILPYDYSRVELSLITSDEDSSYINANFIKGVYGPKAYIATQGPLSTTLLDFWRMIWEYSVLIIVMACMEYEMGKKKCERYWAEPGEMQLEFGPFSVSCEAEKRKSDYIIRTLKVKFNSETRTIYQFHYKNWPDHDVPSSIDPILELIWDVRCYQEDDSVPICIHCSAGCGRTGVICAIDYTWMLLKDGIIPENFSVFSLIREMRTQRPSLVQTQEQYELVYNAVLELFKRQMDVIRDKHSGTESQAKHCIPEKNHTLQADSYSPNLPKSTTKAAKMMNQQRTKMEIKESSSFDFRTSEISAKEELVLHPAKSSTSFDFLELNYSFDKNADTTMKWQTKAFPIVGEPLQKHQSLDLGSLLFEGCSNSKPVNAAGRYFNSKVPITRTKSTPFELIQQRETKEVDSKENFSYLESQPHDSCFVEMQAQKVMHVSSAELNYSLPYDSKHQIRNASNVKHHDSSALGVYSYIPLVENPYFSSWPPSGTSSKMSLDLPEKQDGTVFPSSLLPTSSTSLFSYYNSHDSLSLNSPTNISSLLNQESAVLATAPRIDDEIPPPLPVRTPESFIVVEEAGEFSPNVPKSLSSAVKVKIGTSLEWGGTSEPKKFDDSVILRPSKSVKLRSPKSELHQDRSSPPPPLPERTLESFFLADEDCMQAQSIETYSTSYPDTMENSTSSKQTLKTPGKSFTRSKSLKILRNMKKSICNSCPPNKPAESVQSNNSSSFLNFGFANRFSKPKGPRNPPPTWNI

[2] = target: T2, Tyrosine-protein phosphatase non-receptor type 7 (Homo sapiens, UniProt P35236); type: functional
T2 sequence (P35236 whole entry): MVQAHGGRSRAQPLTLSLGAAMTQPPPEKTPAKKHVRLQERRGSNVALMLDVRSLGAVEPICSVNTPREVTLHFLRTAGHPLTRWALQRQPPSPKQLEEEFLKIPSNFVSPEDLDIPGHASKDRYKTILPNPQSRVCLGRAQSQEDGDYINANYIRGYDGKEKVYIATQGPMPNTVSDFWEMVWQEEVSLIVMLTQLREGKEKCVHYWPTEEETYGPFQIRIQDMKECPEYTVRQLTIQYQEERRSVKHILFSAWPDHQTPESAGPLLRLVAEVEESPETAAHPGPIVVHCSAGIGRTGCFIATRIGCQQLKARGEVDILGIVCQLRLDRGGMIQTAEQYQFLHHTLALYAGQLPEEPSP

[3] = target: T1, Tyrosine-protein phosphatase non-receptor type 22; type: functional; remark: listed apart in the source
Mu-type opioid receptor [4] = target: T3, Mu-type opioid receptor (Homo sapiens, UniProt P35372); assay: HTS Image-Based Screen for Agonists of the MOR Receptor. [Related pubchem assays (depositor defined):AID1777, AID1785, AID1786, AID2133]; type: functional
T3 sequence (P35372 whole entry): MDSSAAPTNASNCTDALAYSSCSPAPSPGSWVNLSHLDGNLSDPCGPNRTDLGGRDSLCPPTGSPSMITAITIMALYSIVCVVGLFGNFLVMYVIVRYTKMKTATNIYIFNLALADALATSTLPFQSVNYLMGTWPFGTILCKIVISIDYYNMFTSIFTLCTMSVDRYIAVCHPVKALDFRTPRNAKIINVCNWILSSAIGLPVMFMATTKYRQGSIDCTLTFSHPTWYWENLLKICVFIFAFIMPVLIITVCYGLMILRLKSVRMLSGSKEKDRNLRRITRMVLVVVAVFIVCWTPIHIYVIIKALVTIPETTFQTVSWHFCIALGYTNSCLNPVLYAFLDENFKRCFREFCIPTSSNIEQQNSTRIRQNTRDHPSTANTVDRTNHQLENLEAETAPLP

[5] = target: T4, Kappa-type opioid receptor (Homo sapiens, UniProt P41145); type: functional
T4 sequence (P41145 whole entry): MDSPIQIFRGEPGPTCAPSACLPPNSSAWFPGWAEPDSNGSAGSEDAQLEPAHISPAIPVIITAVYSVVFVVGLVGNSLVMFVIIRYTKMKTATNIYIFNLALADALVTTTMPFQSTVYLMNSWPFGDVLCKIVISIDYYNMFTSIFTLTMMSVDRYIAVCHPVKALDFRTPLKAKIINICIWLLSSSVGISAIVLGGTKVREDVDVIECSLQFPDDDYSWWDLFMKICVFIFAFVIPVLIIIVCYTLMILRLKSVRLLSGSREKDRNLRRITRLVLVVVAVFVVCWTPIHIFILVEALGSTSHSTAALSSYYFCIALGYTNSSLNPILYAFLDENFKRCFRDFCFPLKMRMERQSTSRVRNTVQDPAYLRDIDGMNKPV

Beta-galactosidase = Beta-galactosidase (Escherichia coli, UniProt Q8VNN2); type: functional
Beta-galactosidase, sequence (Q8VNN2 whole entry): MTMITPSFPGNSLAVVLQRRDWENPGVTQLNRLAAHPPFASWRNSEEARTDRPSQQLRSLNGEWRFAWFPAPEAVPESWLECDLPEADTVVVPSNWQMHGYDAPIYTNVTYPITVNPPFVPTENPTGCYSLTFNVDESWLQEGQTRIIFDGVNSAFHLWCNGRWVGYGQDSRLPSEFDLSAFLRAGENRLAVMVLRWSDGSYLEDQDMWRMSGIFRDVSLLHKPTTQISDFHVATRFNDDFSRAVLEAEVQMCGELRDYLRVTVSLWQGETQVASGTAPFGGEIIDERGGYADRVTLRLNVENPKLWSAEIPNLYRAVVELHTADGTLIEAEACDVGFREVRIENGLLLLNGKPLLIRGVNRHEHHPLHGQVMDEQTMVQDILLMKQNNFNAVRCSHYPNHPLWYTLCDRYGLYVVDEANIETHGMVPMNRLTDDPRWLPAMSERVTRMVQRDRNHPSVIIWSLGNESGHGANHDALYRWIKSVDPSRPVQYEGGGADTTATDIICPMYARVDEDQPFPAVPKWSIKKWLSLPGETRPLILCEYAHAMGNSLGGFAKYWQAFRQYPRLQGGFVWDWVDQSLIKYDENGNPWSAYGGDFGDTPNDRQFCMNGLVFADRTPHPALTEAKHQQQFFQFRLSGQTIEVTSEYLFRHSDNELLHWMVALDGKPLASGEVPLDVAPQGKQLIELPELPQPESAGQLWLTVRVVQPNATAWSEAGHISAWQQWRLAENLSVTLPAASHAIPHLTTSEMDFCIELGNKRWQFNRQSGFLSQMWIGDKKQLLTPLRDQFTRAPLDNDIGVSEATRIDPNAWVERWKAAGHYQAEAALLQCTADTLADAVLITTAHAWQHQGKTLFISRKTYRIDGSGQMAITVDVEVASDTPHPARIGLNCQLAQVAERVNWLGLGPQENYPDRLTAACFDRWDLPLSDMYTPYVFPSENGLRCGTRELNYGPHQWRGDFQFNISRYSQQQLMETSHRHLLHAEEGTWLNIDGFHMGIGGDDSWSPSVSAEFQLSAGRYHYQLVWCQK

[6] = target: T5, Delta-type opioid receptor (Homo sapiens, UniProt P41143); assay: HTS Image-Based Screen for Agonists of the DOR Receptor. [Related pubchem assays (depositor defined):AID1777, AID1786, AID2133]; type: functional
T5 sequence (P41143 whole entry): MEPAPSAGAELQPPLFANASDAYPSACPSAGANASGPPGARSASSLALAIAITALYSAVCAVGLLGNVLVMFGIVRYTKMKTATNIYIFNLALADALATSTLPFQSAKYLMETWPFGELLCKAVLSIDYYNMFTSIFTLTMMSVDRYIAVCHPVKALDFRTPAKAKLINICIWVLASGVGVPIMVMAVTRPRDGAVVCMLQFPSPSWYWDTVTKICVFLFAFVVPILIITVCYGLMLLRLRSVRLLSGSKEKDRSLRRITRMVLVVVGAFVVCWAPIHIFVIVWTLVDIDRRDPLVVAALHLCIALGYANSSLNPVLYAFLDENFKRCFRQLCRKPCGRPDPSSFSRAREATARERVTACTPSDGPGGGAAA

[7] = target: T6, Rac GTPase-activating protein 1 (Homo sapiens, UniProt Q9H0H5); assay: MgcRacGAP GTPase-activating activity inhibitors, confirmation, biochemical, ADP Hunter fluorescence, primary and confirmatory (AID 624330); type: functional
T6 sequence (Q9H0H5 whole entry): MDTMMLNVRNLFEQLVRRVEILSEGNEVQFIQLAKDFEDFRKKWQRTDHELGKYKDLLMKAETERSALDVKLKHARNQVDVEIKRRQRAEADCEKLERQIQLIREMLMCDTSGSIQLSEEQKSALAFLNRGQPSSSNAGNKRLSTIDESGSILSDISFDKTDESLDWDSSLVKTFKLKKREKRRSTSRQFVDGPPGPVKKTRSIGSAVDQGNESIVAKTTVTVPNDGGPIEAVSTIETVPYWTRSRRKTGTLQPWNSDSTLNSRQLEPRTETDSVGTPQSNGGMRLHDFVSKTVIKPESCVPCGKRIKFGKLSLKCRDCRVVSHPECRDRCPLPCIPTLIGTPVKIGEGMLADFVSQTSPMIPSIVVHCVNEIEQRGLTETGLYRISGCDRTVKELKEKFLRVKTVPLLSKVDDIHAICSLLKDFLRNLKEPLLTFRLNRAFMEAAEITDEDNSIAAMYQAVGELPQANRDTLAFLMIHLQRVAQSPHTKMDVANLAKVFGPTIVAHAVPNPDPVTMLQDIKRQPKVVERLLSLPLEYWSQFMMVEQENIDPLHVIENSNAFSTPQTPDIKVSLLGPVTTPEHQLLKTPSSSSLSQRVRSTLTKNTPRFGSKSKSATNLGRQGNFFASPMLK

[8] = target: T5, Delta-type opioid receptor; assay: HTS Image-Based Screen for Antagonists of the DOR Receptor. [Related pubchem assays (depositor defined):AID1777, AID1785, AID1786, AID2133]; type: functional
Vero [9] = assay: cells; type: functional; conditions: Chlorocebus sabaeus
Vero [10] = assay: cells; type: functional, cell-based; conditions: Chlorocebus sabaeus
[11] = target: T4, Kappa-type opioid receptor; type: functional; remark: listed apart in the source
[12] = target: Sphingosine 1-phosphate receptor 4 (Homo sapiens, UniProt O95977); assay: Fluorescence dose response cell-based high throughput screening assay for agonists of the Sphingosine 1-Phosphate Receptor 4 (S1P4). [Related pubchem assays: 1509 (Primary screen.), 1523 (Confirmation screen in triplicates.)]; type: functional
Sphingosine 1-phosphate receptor 4, sequence (O95977 whole entry): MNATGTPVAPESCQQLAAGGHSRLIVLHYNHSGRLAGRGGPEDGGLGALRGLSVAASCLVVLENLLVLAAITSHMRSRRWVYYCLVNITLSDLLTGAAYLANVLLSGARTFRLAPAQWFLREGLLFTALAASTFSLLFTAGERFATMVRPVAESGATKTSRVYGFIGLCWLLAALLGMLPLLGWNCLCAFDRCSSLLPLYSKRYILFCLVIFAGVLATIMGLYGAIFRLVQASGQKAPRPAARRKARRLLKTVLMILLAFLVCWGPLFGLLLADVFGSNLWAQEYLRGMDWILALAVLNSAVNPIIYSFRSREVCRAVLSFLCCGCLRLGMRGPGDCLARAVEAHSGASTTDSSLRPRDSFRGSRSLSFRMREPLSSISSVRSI

H4 = assay: Luminescence Cell-Based Dose Response HTS to Identify Activators of 5'UTR Stem-Loop Driven Prion Protein mRNA Translation in H4 Neuroglioblastoma Cells. [Related pubchem assays: 1829 (Project Summary), 1814 (Primary HTS)]; type: functional; conditions: Homo sapiens
[13] = Luminescence Cell-Based Dose Confirmation HTS to Identify Activators of 5'UTR Stem-Loop Driven Alpha-Synuclein mRNA Translation in H4 Neuroglioblastoma Cells. [Related pubchem assays: 1829 (Project Summary), 1814 (Primary HTS)]; type: functional
[14] = Luminescence Cell-Based Dose Response HTS to Identify Activators of Luciferase Translation or Activity in H4 […] Cells. [Related pubchem assays: 1829 (Project Summary), 1814 (Primary HTS)]; type: functional
[15] = target: Sphingosine 1-phosphate receptor 1 (Homo sapiens, UniProt P21453); assay: Fluorescence-based counterscreen assay for S1P4 agonists: Cell-based dose response high throughput screening assay to identify agonists of the Sphingosine 1-Phosphate Receptor 1 (S1P1). [Related pubchem assays (depositor defined):AID1509, AID1523, AID1801, AID463107, AID463118, AID463119, AID463122, AID463123, AID463129, AID463225, AID504400, AID504460]; type: functional
Sphingosine 1-phosphate receptor 1, sequence (P21453 whole entry): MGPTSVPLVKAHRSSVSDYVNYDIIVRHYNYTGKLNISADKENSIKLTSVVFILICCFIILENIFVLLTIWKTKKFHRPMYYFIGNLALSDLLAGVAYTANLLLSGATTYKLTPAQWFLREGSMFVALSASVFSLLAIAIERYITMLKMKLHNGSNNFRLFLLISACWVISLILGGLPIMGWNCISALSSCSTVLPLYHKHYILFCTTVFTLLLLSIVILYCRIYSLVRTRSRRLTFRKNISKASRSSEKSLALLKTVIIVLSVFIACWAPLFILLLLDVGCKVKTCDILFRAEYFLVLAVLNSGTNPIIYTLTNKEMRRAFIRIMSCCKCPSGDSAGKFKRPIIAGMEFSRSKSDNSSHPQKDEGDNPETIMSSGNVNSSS

Mu-type opioid receptor [16] = target: T3, Mu-type opioid receptor; assay: SAR Analysis of Agonists of the MOR Receptor using an Image-Based Assay - Set 3. [Related pubchem assays (depositor defined):AID1777, AID1785, AID1786, AID1966, AID2133, AID2136, AID2284, AID2285, AID2352]; type: functional
[17] = target: T5, Delta-type opioid receptor; assay: SAR Analysis of Agonists of the DOR Receptor using an Image-Based Assay - Set 3. [Related pubchem assays (depositor defined):AID1777, AID1786]; type: functional
[18] = target: T4, Kappa-type opioid receptor; assay: KOR agonist analogs, arrestin-GFP redistribution, SAR follow-up, imaging, image-based, set 3 (AID 488833); type: functional
[19] = target: T4, Kappa-type opioid receptor; assay: SAR analysis of small molecule agonists of the kappa opioid receptor via a luminescent beta-arrestin assay - Set 3. [Related pubchem assays (depositor defined):AID1777, AID1785, AID1786, AID1966, AID2133, AID2136, AID2284, AID2500]; type: functional
cells = type: functional
[20] = GFP fluorescence signal inhibitors, dose response, artefact control, biochemical, plate reader, dry powder (AID 493243)
[21] = target: T7, Replicative DNA helicase DnaB (Mycobacterium tuberculosis, UniProt P9WMR3); assay: DnaB intein splicing inhibitors, dose response, biochemical, cell-free fluorescence (AID 449749); type: functional
T7 sequence (P9WMR3 whole entry): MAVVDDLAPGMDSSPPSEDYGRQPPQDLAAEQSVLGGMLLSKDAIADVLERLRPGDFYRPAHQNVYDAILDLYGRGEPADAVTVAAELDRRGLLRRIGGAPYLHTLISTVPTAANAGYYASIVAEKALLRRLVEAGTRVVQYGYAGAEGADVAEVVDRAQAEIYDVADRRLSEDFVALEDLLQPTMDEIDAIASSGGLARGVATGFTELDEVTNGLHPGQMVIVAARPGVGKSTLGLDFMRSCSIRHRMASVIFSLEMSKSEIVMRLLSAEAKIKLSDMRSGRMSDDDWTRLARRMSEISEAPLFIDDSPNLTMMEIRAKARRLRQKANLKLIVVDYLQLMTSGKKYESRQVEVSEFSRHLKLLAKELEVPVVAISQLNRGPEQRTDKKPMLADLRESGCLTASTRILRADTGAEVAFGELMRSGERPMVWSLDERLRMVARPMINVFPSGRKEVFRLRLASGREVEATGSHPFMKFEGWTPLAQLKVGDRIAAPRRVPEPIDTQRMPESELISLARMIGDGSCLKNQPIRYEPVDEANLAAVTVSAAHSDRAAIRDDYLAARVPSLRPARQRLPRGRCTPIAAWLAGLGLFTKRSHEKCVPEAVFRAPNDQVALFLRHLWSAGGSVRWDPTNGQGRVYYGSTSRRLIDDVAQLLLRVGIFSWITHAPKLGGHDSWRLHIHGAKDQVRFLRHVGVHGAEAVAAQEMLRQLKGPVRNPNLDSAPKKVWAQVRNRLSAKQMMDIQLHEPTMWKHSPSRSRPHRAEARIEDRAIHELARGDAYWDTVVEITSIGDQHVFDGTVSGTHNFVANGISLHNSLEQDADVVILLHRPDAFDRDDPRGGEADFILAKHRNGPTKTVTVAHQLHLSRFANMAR

[22] = target: T7, Replicative DNA helicase DnaB; assay: DnaB Intein secondary assay Measured in Biochemical System Using Plate Reader - 2047-04_Inhibitor_Dose_DryPowder_Activity. [Related pubchem assays (depositor defined):AID2223]
Protein RecA [23] = target: T8, Protein RecA (Mycobacterium tuberculosis, UniProt P9WHJ3); assay: RecA Intein Measured in Biochemical System Using Plate Reader - 2047-02_Inhibitor_Dose_DryPowder_Activity. [Related pubchem assays (depositor defined):AID2223]; design: species or system Mycobacterium tuberculosis H37Rv
T8 sequence (P9WHJ3 whole entry): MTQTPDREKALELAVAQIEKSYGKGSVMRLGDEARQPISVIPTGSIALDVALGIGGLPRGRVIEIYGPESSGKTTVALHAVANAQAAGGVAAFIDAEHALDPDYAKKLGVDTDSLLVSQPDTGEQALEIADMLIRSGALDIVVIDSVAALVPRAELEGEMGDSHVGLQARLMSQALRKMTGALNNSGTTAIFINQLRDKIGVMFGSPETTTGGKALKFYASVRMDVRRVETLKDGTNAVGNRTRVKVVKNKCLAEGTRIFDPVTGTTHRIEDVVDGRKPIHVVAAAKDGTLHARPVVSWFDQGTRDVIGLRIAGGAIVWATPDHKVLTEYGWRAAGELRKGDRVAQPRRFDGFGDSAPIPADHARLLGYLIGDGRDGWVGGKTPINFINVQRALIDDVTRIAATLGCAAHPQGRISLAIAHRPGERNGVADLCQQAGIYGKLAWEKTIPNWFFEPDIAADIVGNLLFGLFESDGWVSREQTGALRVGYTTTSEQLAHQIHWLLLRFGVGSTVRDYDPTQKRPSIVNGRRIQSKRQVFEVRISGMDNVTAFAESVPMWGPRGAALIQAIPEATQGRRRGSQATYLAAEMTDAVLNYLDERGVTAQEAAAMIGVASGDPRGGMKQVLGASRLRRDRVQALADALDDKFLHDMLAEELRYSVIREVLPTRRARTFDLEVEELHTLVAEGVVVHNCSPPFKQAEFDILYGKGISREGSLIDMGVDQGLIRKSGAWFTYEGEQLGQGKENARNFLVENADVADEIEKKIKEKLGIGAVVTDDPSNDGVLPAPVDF

Protein RecA [24] = target: T8, Protein RecA; assay: Fluorescence Cell-Free Homogeneous Dose Retest to Identify Inhibitors of RecA-Intein Splicing Activity. [Related pubchem assays (depositor defined):AID2097, AID2223, AID489010, AID492950]; type: functional

COc1ccc(C2SCC(=O)N2CCCN(C)C)cc1 (configuration not stated)
inactive: IC50 [1] > 79.4 µM | IC50 [2] > 79.4 µM | IC50 [3] > 79.4 µM

COc1cc(/C=C/c2ccc3cccc(O)c3n2)ccc1O
> 32 µM: IC50 [11]
active: IC50 [5] 11.9 µM | IC50 [7] 72.4 µM | CC50 (Vero [9]) 12.4 µM | IC50 (Vero [10]) > 25 µM
inactive: EC50 (Mu-type opioid receptor [4]) > 32 µM | EC50 (Beta-galactosidase) > 31.5 µM | EC50 [6] > 32 µM | IC50 [8] > 32 µM

CC(=O)Oc1ccc2cc(-c3nc4ccccc4n3C)c(=O)oc2c1
191 µM (not active): EC50 [12]
inactive: EC50 [15] > 49.8 µM
active: EC50 (H4) 4.66 µM | EC50 [13] 94.4 µM | EC50 [14] 53.2 µM

CC(=O)Oc1ccc(CSc2nnc(-c3ccccn3)n2Cc2cccs2)cc1
inactive: EC50 (Mu-type opioid receptor [16]) > 32 µM | EC50 [17] > 32 µM | EC50 [18] > 32 µM | EC50 [19] > 20 µM

C/C(=N\NC(=O)c1ccncc1)c1cc2ccccc2oc1=O
active: IC50 (cells) 0.55 µM | AC50 [20] 218 µM | AC50 [21] 2.77 µM | AC50 [22] 36.9 µM | AC50 (Protein RecA [23]) 3.08 µM | EC50 (Protein RecA [24]) 2.86 µM
